Test [1] addresses T1, HIV protease (Human immunodeficiency virus type 1 group M subtype B, UniProt P04585).
T1 construct: purified HIV protease was incubated with synthetic peptide
Put plainly: HIV protease enzyme test (cleavage of synthetic Gag peptide, RP-HPLC). In kind it is biochemical. The settings on record: purified HIV protease, synthetic peptide substrate, read-out: IC50 (50% inhibition of the protease activity). Here is the method:
This is verified by means of an HIV-specific protease enzyme test.
The results of the examples listed below were determined according to the HIV test system described in the following references [cf. Hansen, J., Billich, S., Schulze, T., Sukrow, S. and Molling, K (1988), EMBO Journal, Vol. 7, No. 6, pp. 1785-1791]: purified HIV protease was incubated with synthetic peptide which imitates a cleavage site in the Gag precursor protein and represents an in-vivo cleavage site for the HIV protease. The cleavage products of the synthetic peptide which resulted were analysed by means of reverse phase high performance liquid chromatography (RP-HPLC). The IC50 values which are given refer to the substance concentrations which, under the test conditions set out above, effect a 50% inhibition of the protease activity.

Test [2] has as its system HIV. Put plainly: HIV infection in cell culture (syncytium formation in HIV-infected human PBLs). The test is classed as cell-based. The settings on record: Human immunodeficiency virus 1, Lymphocyte, 72 h; HIV-infected normal human blood lymphocytes (PBLs), 37° C., evaluated day 3 to 6 after infection; read-out: IC50 (50% of the virus-induced syncytia suppressed). How it is done: HIV infection in cell culture
The HIV test was carried out, with minor modifications, according to the method of Pauwels et al. [cf. Journal of Virological Methods 20, (1988), 309-321].
Normal human blood lymphocytes (PBLs) were enriched through Ficoll-Hypaque and stimulated in RPMI 1640, 20% fetal calf serum containing phytohaemagglutinin (90 μg/ml) and interleukin-2 (40 U/ml). For infection with the infectious HIV, the PBLs were pelleted and the cell pellet was subsequently suspended in 1 ml of HIV virus adsorption solution and incubated at 37° C. for 1 hour.
The virus adsorption solution was centrifuged and the infected cell pellet was taken up in growth medium in such a way that the suspension was adjusted to 1×10^5 cells per ml. The cells infected in this manner were pipetted, at 1×10^4 cells/well, into the wells of 96-well microtitre plates.
The first vertical row of the microtitre plate contained only growth medium and cells which were not infected but which otherwise had been treated exactly as described above (cell control). The second vertical row of the microtitre plate contained only HIV-infected cells (virus control) in growth medium. […]
The test mixtures were incubated at 37° C. until the syncytium formation which is typical for HIV appeared in the untreated virus control (between day 3 and 6 after infection) and it was then evaluated microscopically. […]

The source of these data is US5457108A, “5-oxo-dibenzo[a,d]cyclohepta-1,4-dienes” (Bayer Aktiengesellschaft, priority 1992, dated 1995).

pIC50: −log10 of the molar value.

Usually pIC50 stands for the negative decadic logarithm of the IC50, by convention in mol/L. Turning to `O=C(NCc1ccc2c(c1)[C@@H](O)[C@H](O)c1cc(CNC(=O)OCc3ccccc3)ccc1C2=O)OCc1ccccc1` (relative stereo) [Example 4, (trans)-2,8-Bis-phenylmethoxycarbonylaminomethyl-10,11-dihydroxy-5-oxo-dibenzo[a,d]cyclohepta-1,4-diene], the pIC50 is 8.30 in test [1] and 5.00 in test [2].
Take `O=C(NCc1ccc2c(c1)[C@@H](O)[C@@H](O)c1cc(CNC(=O)OCc3ccccc3)ccc1C2=O)OCc1ccccc1` [Example 5, (cis)-2,8-Bis-phenylmethoxycarbonylaminomethyl-10,11-dihydroxy-5-oxo-dibenzo[a,d]cyclohepta-1,4-diene]: the pIC50 in test [2] was 5.00.
For the compound `CC(C)(C)S(=O)(=O)CC(Cc1cccc2ccccc12)C(=O)NCc1ccc2c(c1)C(O)C(O)c1cc(CNC(=O)C(Cc3cccc4ccccc34)CS(=O)(=O)C(C)(C)C)ccc1C2=O` (stereo not drawn) [Example 6, (trans)-10,11-Dihydroxy-2,8-bis-[5,5-dimethyl-4,4-dioxo-2-(1-naphthylmethyl)-4-thiahexanoylaminomethyl-5-oxodibenzo[a,d]cyclohepta-1,4-diene], in test [1], the pIC50 is 5.70.
